Common to all, as to assay type: in vivo, female Athymic NCr nu/nu mice
Assay [1] has as its system NCI-H82 small cell lung tumor. In words: NCI-H82 xenograft model study 2: alisertib and cisplatin. An excerpt: NCI-H82 2: A thirty-to-forty mg fragment of NCI-H82 small cell lung tumor, propagated in an in vivo passage, was implanted SC in the area of the right flank of female Athymic NCr nu/nu mice (age 5 weeks, Charles River Laboratories, Wilmington, MA) using a 12-gauge trocar needle. Tumors were allowed to reach 100-245 mm^3 in volume before the start of treatment. A sufficient number of mice were implanted so that tumors in a volume range as narrow as possible were selected for the trial on the day of treatment initiation (day 14 after tumor implantation, designated as SD, or Day 0). Those animals selected with tumors in the proper volume range were randomized into 9 treatment and control groups (n=10/group) so that the median tumor volumes on the first day of treatment were as close as possible (196-198 mm^3).
(§1) An 8 mg/mL suspension of alisertib was formulated weekly by adding a half volume of 20% HPBCD in water for injection (WFI) to the alisertib powder, then mixing by vortexing, and sonicating for one minute. The suspension was diluted to 4 mg/mL with 2% sodium bicarbonate (NaHCO3) in WFI. The final composition of the alisertib vehicle was 10% HPBCD/1% NaHCO3 in WFI. The 4 mg/mL solution was diluted to 2 mg/mL with complete vehicle for the lower dose. The alisertib dosing formulations were stored in brown bottles at room temperature during the dosing period. All alisertib injections were administered on the basis of exact animal body weight on each day of treatment, using an injection volume of 0.05 mL/10 g body weight.
(§2) A 1 mg/mL stock solution of cisplatin (Cisplatin Injection, PCH […]) was diluted each day of treatment with saline to 0.8 and 0.4 mg/mL. Cisplatin injections were administered on the basis of exact animal body weight on each day of treatment, using an injection volume of 0.05 mL/10 g body weight.
(§3) Tumors were measured twice weekly using vernier calipers. Tumor volumes were calculated using standard procedures V=W^2×L/2). When mean tumor volumes reached approximately 206-219 mm^3 for NCI-H82 1, 196-198 mm^3 for NCI-H82 2, or 169-174 mm^3 for NCI-H69, mice were randomized into groups of n=10/arm as described in the tables below, and injected with vehicle, alisertib or agents (cisplatin, or carboplatin), or the combination of alisertib plus one of the agents, at various doses and schedules as described below in Tables 1a, 2a and 3a. Tumor size and body weight were measured approximately twice a week for the duration of the study. […] Tumor growth continued to be monitored after the dosing period in some studies. […]
(§4) Measurements from the day of treatment initiation to Day 20 or Day 21 following treatment initiation are analyzed as specified in Tables below. […]

Assay [2] relates to NCI-H69 small cell lung tumor. As to the kind of experiment: NCI-H69 xenograft model: alisertib and cisplatin.
Source text: NCI-H69: A thirty-to-forty mg fragment of NCI-H69 small cell lung tumor, propagated in an in vivo passage, was implanted SC in the area of the right flank of female Athymic NCr nu/nu nice (age 6 weeks, Charles River Laboratories, Frederick, MD) using a 12-gauge trocar needle. Tumors were allowed to reach 100-245 mm^3 in volume before the start of treatment. A sufficient number of mice were implanted so that tumors in a volume range as narrow as possible were selected for the trial on the day of treatment initiation (day 24 after tumor implantation, designated as SD, or Day 0). Those animals selected with tumors in the proper volume range were randomized into 9 treatment and control groups (n=10/group) so that the mean tumor volumes on the first day of treatment were as close as possible (169-174 mm^3).
as §1, §2, §3, §4

The subject of assay [3] is NCI-H82 small cell lung tumor. In words: NCI-H82 xenograft model study 1: alisertib and carboplatin. How it is done:
NCI-H82 1: […] Those animals selected with tumors in the proper volume range were randomized into 9 treatment and control groups (n=10/group) so that the median tumor volumes on the first day of treatment were as close as possible (206-219 mm^3). […] The suspension was diluted to 4 mg/mL with 2% sodium bicarbonate (NaHCO3) in WFI. The final composition of the alisertib vehicle was 10% HPBCD/1% NaHCO3 in WFI. The 4 mg/mL solution was diluted to 2 mg/mL with complete vehicle for the lower dose. The alisertib dosing formulations were stored in brown bottles at room temperature during the dosing period. […] A 10 mg/mL stock solution of carboplatin (Hospira, Inc.) was diluted each day of treatment with saline. […] Tumors were measured twice weekly using vernier calipers. […] Tumor size and body weight were measured approximately twice a week for the duration of the study. […] Tumor growth continued to be monitored after the dosing period in some studies. […] For each animal, the log tumor volume at the day of treatment initiation is subtracted from the log tumor volume on the subsequent days. This difference vs. time is used to calculate an area under the curve (AUC) for each animal using the trapezoid rule. In instances when an animal in a treatment group is removed early from the study, the last observed tumor value is carried forward through all subsequent time points. The synergy score for the combination of agents A and B is defined as 100*(mean(AUCAB)-mean(AUCA)-mean(AUCB)+mean(AUCctl))/mean(AUCctl): where AUCAB, AUCA, AUCB, and AUCctl are the AUC values for animals in the combination group, the A group, the B group, and the control group, respectively. The standard error of the synergy score is computed based on the variation in the AUC values among the animals. […] If the P-value is above 0.05, then the combination is considered to be additive. If the P-value is below 0.05, and the synergy score is less than zero, then the combination is considered to be synergistic. If the P-value is below 0.05 and the synergy score was greater than zero, but the mean AUC for the combination was […] than the lowest mean AUC among the two single agent treatments, then the combination was sub-additive. If the P-value is below 0.05 and if the synergy score was greater than zero, and the mean AUC for the combination was greater than the mean AUC for at least one of the single agent treatments, then the combination was antagonistic. […] In the combination treatment groups alisertib was administered first, followed immediately by the administration of carboplatin. One group served as a vehicle-treated control group (Group 1) receiving PO treatment with the vehicle used for administration of alisertib in treatment groups on a QDx21 schedule.

Three molecules from patent US12042499B2, “Administration of aurora kinase inhibitor and chemotherapeutic agents” (Millennium Pharmaceuticals, Inc., priority 2015, dated 2024) can be followed below.

Take `N.N.[Cl][Pt][Cl]` [Cisplatin, cisplatin]: the “Tumor Volume Day 20” value in assay [1] (2 mg/kg Cisplatin Q4Dx3 IP) turned out to be 1429 mm^3; in assay [1] (4 mg/kg Cisplatin Q4Dx3 IP), 1270 mm^3; in assay [2] (2 mg/kg Cisplatin Q4Dx3 IP) it was 604 mm^3; in assay [2] (4 mg/kg Cisplatin Q4Dx3 IP), 300 mm^3.
As to `N.N.O=C([O-])C1(C(=O)[O-])CCC1.[Pt+2]` [Carboplatin, carboplatin], the “Tumor Volume Day 21” value in assay [3] (25 mg/kg Carboplatin Q7Dx3 IP) is 1373 mm^3; in assay [3] (75 mg/kg Carboplatin Q7Dx3 IP), 965 mm^3.
With `COc1cc(Nc2ncc3c(n2)-c2ccc(Cl)cc2C(c2c(F)cccc2OC)=NC3)ccc1C(=O)O` [Alisertib, 4-{[9-chloro-7-(2-fluoro-6-methoxyphenyl)-5H-pyrimido[5,4-d][2]benzazepin-2-yl]amino}-2-methoxybenzoic acid], the “Tumor Volume Day 20” value in assay [1] (10 mg/kg Alisertib QDx21 PO) came out at 1578 mm^3; in assay [1] (20 mg/kg Alisertib QDx21 PO), 1461 mm^3; in assay [2] (10 mg/kg Alisertib QDx21 PO), 374 mm^3; in assay [2] (20 mg/kg Alisertib QDx21 PO), 149 mm^3. In addition, the results for the “Tumor Volume Day 21” value in assay [3] (10 mg/kg Alisertib QDx21 PO) and in assay [3] (20 mg/kg Alisertib QDx21 PO) were 1701 mm^3 and 1640 mm^3, respectively.
